Series [1] concerns Staphylococcus aureus. Description: Antibacterial activity against Staphylococcus aureus ATCC 29213 after 24 hrs by broth dilution method. Type of series: functional. To be noted: ATCC 29213, 24 h.
Series [2] concerns Staphylococcus aureus. The series is described as follows: Antibacterial activity against PVL-positive and non-typable methicillin-resistant Staphylococcus aureus USA300-1110301146 after 24 hrs by broth dilution method. It counts as functional. To be noted: USA300-1110301146, 24 h.
In another series the test system is Pseudomonas aeruginosa. Description: Antibacterial activity against Pseudomonas aeruginosa ATCC 27853 after 24 hrs by broth dilution method. It counts as functional. To be noted: ATCC 27853, 24 h. (Broth dilution looks for growth in wells or tubes with falling amounts of substance.)
Another series has as its system Enterococcus faecalis. The series is described as follows: Antibacterial activity against Enterococcus faecalis ATCC 29212 after 24 hrs by broth dilution method. Type of series: functional. The following applies: ATCC 29212, 24 h.
Series [3] in a line: Toxicity in human erythrocytes assessed as concentration required to achieve 100% hemolysis after 4 hrs. Type of series: cell-based. To be noted: erythrocyte.
The subject of series [4] is Staphylococcus epidermidis. The series is described as follows: Antibacterial activity against Staphylococcus epidermidis ATCC 12228 after 24 hrs by broth dilution method. Type of series: functional. The following applies: ATCC 12228, 24 h.
In series [5] the test system is Staphylococcus aureus. Description: Antibacterial activity against PVL-positive and non-typable methicillin-resistant Staphylococcus aureus 1110301981H-T034 after 24 hrs by broth dilution method. Type of series: functional.
For series [6], the system named is Staphylococcus aureus. The series is described as follows: Antibacterial activity against PVL-deficient and non-typable methicillin-resistant Staphylococcus aureus N229-T034 after 24 hrs by broth dilution method. It counts as functional. The following applies: N229-T034, 24 h.
The next series concerns Bacillus cereus. Description: Antibacterial activity against Bacillus cereus ATCC 11778 after 24 hrs by broth dilution method. Type of series: functional. To be noted: ATCC 11778, 24 h.
The subject of another series is Escherichia coli. The series is described as follows: Antibacterial activity against Escherichia coli ATCC 25922 after 24 hrs by broth dilution method. Type of series: functional. To be noted: ATCC 25922, 24 h.
Series [7] concerns Staphylococcus aureus. The series is described as follows: Antibacterial activity against PVL-deficient and non-typable methicillin-resistant Staphylococcus aureus N133-T034 after 24 hrs by broth dilution method. Type of series: functional. To be noted: N133-T034, 24 h.

For orientation: MIC means the smallest concentration in the dilution series that meets the test's criterion for growth inhibition. A high value points to a need for much substance.

In brackets after ≈: the same amount, converted by molar mass. Square brackets hold non-standard residues; d marks the D form. Peptide text beside a SMILES is read from it. Orn = NCCC[C@H](N)C(=O)O

For `CCCCCCCCCC[C@@H]1NC(=O)[C@H](CCCN)NC(=O)[C@@H]2CCCN2C(=O)[C@@H](Cc2ccccc2)NC(=O)[C@H](CCCN)NC(=O)[C@H](C(C)C)NC(=O)[C@H](CCCN)NC(=O)[C@@H]2CCCN2C(=O)[C@@H](Cc2ccccc2)NC(=O)[C@H](CCCN)NC1=O`, the MIC is 16 µg/mL (≈ 12.9 µM) against Staphylococcus aureus [1]; 8 µg/mL (≈ 6.44 µM) against Staphylococcus aureus [2]; 16 µg/mL (≈ 12.9 µM) in the series on Pseudomonas aeruginosa; 16 µg/mL (≈ 12.9 µM) in the series on Enterococcus faecalis; 8 µg/mL (≈ 6.44 µM) in [4]; 16 µg/mL (≈ 12.9 µM) in the series with Staphylococcus aureus [5]. Besides, the MIC stood at 8 µg/mL (≈ 6.44 µM) with Staphylococcus aureus [6], 4 µg/mL (≈ 3.22 µM) in the series on Bacillus cereus, 16 µg/mL (≈ 12.9 µM) in the series on Escherichia coli and 8 µg/mL (≈ 6.44 µM) against Staphylococcus aureus [7]. Besides, the Activity in [3] stood at 500 µM.

On to `CC(C)C[C@@H]1NC(=O)[C@H](CCCN)NC(=O)[C@H](C(C)C)NC(=O)[C@@H]2CCCN2C(=O)[C@@H](Cc2ccccc2)NC(=O)[C@H](CC(C)C)NC(=O)[C@H](CCCN)NC(=O)[C@H](C(C)C)NC(=O)[C@@H]2CCCN2C(=O)[C@@H](Cc2ccccc2)NC1=O` [GRAMICIDIN S] (cyclo(L[dF]PV[Orn]L[dF]PV[Orn])), for which the minimal inhibitory concentration (MIC) in the series with Staphylococcus aureus [1] stood at 8 µg/mL (≈ 7.01 µM); against Staphylococcus aureus [2] it was 8 µg/mL (≈ 7.01 µM); with Pseudomonas aeruginosa, 64 µg/mL (≈ 56.1 µM); with Enterococcus faecalis, 16 µg/mL (≈ 14 µM); in [4], 8 µg/mL (≈ 7.01 µM); in the series with Staphylococcus aureus [5], 8 µg/mL (≈ 7.01 µM). Moreover, the MIC against Staphylococcus aureus [6] was 8 µg/mL (≈ 7.01 µM); against Bacillus cereus, 8 µg/mL (≈ 7.01 µM); with Escherichia coli it was 32 µg/mL (≈ 28 µM); in the series with Staphylococcus aureus [7] it was 8 µg/mL (≈ 7.01 µM). In addition, the Activity in series [3] was 31.3 µM.

With `CC(C)(C)C[C@@H]1NC(=O)[C@H](CCCN)NC(=O)[C@@H]2CCCN2C(=O)[C@@H](Cc2ccccc2)NC(=O)[C@H](CCCN)NC(=O)[C@H](CC(C)(C)C)NC(=O)[C@H](CCCN)NC(=O)[C@@H]2CCCN2C(=O)[C@@H](Cc2ccccc2)NC(=O)[C@H](CCCN)NC1=O`, the MIC is more than 64 µg/mL in the series on Staphylococcus aureus [1]; more than 64 µg/mL against Staphylococcus aureus [2]; 64 µg/mL (≈ 53.4 µM) against Pseudomonas aeruginosa; more than 64 µg/mL against Enterococcus faecalis; 16 µg/mL (≈ 13.3 µM) in series [4]; more than 64 µg/mL with Staphylococcus aureus [5]. The minimum inhibitory concentration (MIC) in the series on Staphylococcus aureus [6], in the series on Bacillus cereus, with Escherichia coli and against Staphylococcus aureus [7] was more than 64 µg/mL in each case. In addition, in series [3], the Activity was more than 500 µM.

The values above are taken from ChEMBL document CHEMBL2146376, “'Inverted' analogs of the antibiotic gramicidin S with an improved biological profile” (Bioorg Med Chem, 2012).
